Values of other authors in patent publication US7335681B2, “Amino ceramide-like compounds and therapeutic methods of use” (The Regents of the University of Michigan, priority 2001, dated 2008).

Experiments:
[1] = test system: E. coli; conditions: PDMP treatment
[2] = test system: PKC
[3] = test system: Ehrlich ascites carcinoma cells
[4] = test system: GlcCer; conditions: in vivo

| Compound | adherence of E. coli to mammalian cells [1] | cellular content of PKC [2] | antitumor effect in mice [3] | tissue levels of GlcCer [4] |
| --- | --- | --- | --- | --- |
| CCCCCCCCCC(=O)N[C@H](CN1CCOCC1)[C@H](O)c1ccccc1 [PDMP, 1R-phenyl-2R-decanoylamino-3-morpholino-1-propanol] | reduces the adherence | lower the cellular content of PKC | cure mice of cancer | – |
| CN(C)CCCN1c2ccccc2Sc2ccc(Cl)cc21 [chlorpromazine] | – | – | – | lower tissue levels of GlcCer |
